The text below walks through data of paper PMC8213057, “Targeting ALK2: An Open Science Approach to Developing Therapeutics for the Treatment of Diffuse Intrinsic Pontine Glioma” (Journal of Medicinal Chemistry, 2020).

Structures are written as SMILES.

In one experiment the target is T1, DRAK1/STK17A (Homo sapiens, UniProt Q9UEE5).
T1 sequence (Q9UEE5 1-414): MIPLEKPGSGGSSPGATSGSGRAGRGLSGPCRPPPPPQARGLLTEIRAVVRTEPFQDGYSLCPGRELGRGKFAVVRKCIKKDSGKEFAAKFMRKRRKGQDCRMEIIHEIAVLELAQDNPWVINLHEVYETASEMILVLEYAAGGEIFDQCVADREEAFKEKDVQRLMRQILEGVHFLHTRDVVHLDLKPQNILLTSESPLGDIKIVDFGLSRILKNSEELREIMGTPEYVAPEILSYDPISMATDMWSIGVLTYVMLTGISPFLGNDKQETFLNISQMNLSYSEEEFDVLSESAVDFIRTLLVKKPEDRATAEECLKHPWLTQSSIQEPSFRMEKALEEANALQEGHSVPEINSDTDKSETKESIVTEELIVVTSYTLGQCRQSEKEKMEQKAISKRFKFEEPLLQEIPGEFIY
Kind of experiment: biochemical. The note with it: read-out: % enzyme activity, 1 μM; Run 1, Run 2.

For another experiment, the target named is PKCeta (Homo sapiens, UniProt P24723). The experiment in a line: biochemical. The note with it: read-out: % enzyme activity, 1 μM; Run 1, Run 2.
Sequence of PKCeta (P24723 whole entry): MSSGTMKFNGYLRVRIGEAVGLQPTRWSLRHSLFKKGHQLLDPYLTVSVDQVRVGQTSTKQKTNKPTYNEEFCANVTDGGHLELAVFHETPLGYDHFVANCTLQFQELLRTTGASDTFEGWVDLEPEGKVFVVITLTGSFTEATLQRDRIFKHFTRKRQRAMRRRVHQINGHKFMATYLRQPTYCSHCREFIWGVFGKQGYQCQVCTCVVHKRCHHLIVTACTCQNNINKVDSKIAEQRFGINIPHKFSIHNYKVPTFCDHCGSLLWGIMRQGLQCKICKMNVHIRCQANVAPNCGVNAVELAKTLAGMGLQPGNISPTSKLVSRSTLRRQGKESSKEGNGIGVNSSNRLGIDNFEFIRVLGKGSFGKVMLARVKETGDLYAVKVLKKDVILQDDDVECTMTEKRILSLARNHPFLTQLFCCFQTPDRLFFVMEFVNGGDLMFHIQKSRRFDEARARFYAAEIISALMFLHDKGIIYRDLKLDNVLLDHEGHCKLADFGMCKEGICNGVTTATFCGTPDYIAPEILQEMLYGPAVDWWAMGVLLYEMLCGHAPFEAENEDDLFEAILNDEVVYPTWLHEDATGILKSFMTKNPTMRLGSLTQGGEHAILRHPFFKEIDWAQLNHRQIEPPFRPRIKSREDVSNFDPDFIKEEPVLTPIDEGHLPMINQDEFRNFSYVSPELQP
The next experiment concerns the target T2, TAOK2/TAO1 (Homo sapiens, UniProt Q9UL54).
T2 sequence (Q9UL54 1-1235): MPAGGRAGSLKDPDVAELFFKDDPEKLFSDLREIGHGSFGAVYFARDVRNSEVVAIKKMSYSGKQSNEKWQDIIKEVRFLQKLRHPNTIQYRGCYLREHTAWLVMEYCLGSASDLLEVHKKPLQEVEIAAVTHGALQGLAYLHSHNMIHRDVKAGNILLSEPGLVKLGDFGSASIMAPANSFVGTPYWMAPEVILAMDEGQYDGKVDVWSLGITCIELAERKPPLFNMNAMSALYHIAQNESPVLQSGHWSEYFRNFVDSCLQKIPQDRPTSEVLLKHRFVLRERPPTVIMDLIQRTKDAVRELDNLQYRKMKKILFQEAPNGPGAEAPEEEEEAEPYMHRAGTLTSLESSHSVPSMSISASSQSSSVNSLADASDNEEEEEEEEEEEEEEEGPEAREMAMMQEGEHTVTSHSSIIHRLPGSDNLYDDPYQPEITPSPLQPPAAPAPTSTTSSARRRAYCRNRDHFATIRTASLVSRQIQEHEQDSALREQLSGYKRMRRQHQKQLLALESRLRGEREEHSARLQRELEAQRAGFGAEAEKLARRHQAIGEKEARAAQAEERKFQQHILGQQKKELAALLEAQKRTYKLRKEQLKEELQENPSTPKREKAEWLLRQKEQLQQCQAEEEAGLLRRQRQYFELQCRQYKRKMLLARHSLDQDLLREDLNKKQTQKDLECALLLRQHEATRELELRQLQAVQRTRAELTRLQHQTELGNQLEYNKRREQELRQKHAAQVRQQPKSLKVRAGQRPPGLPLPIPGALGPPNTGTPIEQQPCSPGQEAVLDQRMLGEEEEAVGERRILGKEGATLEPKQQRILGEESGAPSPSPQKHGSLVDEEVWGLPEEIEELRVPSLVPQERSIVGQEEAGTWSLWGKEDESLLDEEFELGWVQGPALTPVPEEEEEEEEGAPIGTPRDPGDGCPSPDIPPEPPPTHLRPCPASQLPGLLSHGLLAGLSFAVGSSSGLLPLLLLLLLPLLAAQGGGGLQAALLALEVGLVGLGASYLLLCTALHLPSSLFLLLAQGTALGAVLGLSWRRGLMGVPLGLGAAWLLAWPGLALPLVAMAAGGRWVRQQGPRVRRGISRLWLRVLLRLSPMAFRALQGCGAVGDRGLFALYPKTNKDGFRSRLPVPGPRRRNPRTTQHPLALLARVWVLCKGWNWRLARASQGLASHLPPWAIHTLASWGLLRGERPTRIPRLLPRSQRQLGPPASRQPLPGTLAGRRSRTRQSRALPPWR
Kind of experiment: biochemical. The note with it: read-out: % enzyme activity, 1 μM; Run 1, Run 2.

In the next experiment the target is T3, EPHA8 (Homo sapiens, UniProt P29322).
T3 sequence (P29322 28-1005): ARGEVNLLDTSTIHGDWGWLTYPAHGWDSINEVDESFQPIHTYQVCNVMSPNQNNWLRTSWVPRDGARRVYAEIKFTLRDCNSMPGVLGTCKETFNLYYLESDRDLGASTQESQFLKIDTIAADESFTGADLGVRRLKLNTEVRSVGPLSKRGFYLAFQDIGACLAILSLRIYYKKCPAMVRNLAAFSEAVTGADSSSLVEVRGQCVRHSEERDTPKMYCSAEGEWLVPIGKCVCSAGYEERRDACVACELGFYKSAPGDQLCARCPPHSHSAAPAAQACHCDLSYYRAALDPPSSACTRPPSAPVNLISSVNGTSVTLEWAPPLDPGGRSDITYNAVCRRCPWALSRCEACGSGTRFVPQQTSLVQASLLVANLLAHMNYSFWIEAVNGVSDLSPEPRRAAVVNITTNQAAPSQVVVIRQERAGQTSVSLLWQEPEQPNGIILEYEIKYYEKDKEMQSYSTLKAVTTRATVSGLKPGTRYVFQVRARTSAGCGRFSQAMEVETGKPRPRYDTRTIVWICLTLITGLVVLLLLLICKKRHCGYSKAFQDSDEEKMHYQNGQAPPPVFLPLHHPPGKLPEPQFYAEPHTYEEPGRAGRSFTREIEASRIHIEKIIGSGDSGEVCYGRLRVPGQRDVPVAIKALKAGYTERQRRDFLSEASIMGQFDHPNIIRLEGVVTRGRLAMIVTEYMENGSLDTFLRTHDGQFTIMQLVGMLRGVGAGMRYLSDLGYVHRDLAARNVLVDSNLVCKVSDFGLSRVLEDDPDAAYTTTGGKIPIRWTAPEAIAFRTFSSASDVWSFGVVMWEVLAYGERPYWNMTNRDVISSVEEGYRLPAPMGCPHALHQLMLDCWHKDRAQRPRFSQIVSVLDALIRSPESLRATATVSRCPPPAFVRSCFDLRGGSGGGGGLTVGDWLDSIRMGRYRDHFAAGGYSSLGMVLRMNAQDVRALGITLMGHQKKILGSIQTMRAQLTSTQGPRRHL
Conditions: 1 μM; Run 1, Run 2.

The next experiment has as its target CK1G3 (Homo sapiens, UniProt Q9Y6M4). The note with it: 1 μM; Run 1, Run 2.

Sequence of CK1G3 (Q9Y6M4 whole entry): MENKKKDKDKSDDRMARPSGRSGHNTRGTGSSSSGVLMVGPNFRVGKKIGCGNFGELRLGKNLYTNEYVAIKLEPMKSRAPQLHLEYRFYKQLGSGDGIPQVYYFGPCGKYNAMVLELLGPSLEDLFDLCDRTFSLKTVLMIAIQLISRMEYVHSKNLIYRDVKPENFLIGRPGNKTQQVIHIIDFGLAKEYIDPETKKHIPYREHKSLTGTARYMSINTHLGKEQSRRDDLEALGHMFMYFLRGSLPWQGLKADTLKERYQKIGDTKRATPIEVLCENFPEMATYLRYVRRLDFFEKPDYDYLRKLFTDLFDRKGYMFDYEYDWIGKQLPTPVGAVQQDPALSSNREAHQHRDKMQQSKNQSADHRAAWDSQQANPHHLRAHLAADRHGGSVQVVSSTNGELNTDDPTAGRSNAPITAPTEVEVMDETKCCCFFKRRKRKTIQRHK

On to `COc1cc(-c2cncc(-c3ccc(N4CCN(C)CC4)cc3)c2C)cc(F)c1C(N)=O` [Compound 26a, 2-Fluoro-6-methoxy-4-(4-methyl-5-(4-(4-methylpiperazin-1-yl)phenyl)pyridin-3-yl)benzamide], for which the remaining activity at 1 µM was 96.4% on DRAK1/STK17A, 94.9% at PKCeta and 88.6% at TAOK2/TAO1. In addition, the “% enzyme activity” value on EPHA8 is recorded as 94.54%; at CK1G3 it was 64.87%.

For `COc1cc(-c2cncc(-c3ccc(N4C[C@@H](C)N(C)[C@@H](C)C4)cc3)c2C)cc(F)c1C(N)=O` [Compound 26c, 2-Fluoro-6-methoxy-4-(4-methyl-5-(4-((3R,5S)-3,4,5-trimethylpiperazin-1-yl)phenyl)pyridin-3-yl)benzamide], the remaining activity at 1 µM amounted to 96.6% at DRAK1/STK17A, 98.3% at PKCeta and 101% at TAOK2/TAO1. For the same compound, the “% enzyme activity” value on EPHA8 is recorded as 97.01%; on CK1G3, 77.64%.
